What all share (type): in vivo
The subject of one assay is MPO-ANCA. Kind of assay: MPO-ANCA in the serum of SCG/Kj mice by ELISA (ANCA production). The settings on record: 5% EPA-E diet from seven weeks old until completed 11th week of age, absorbance at 405 nm. Here is the method: SCG/Kj mice (seven weeks old) were divided into three groups comprising 6 or 7 animals each, and fed under the same conditions as Example 1 until they completed their 11th week of age. Groups of B6 mice (two animals) and of SCG/Kj mice (15 weeks old; three animals) were further provided, and the five groups were subjected to the absorbance measurement for MPO-ANCA in the serum by an ELISA technique.
The MPO-ANCA titer was measured by following a method having already been reported (Ishida-Okawara, A., Ito-Ihara, T., Muso, E. et al., Neutrophil contribution to the crescentic glomerulonephritis in SCG/Kj mice, Nephrol. Dial. Transplant. 2004; 19: 1708-1715). To put it briefly: Recombinant mouse MPO was coated onto an ELISA plate (Toyoshima Co., Tokyo, Japan) at 4° C. overnight. The plate was blocked with 1% bovine serum albumin (BSA) (Sigma), then incubated at room temperature for 1.5 hours in the presence of mouse serum (50-fold dilution).
Bound MPO-ANCA was detected after an incubation for two hours in the presence of an alkaline phosphatase-labeled anti-mouse IgG antibody (Cappel). Subsequently, the secondary antibody as bound was quantified by measuring the absorbance at 405 nm after an incubation in the presence of 1 mg/ml of p-nitrophenyl phosphate (Sigma).

The subject of another assay is PD-L2. Kind of assay: mRNA expression level of PD-L2 in the kidneys of SCG/Kj mice (quantitative real-time PCR). The settings on record: 5% EPA-E diet from seven weeks old until completed 11th week of age. Here is the method: (§1) SCG/Kj mice (seven weeks old) were divided into three groups comprising 6 or 7 animals each, and fed under the same conditions as Example 1 until they completed their 11th week of age. The mRNA expression levels of PD-1, PD-L1, PD-L2, Foxp3, and CTLA4 in the kidneys, lungs and spleens of the mice were evaluated.
(§2) A frozen kidney was homogenized in a TRIzol® reagent (Invitrogen, Carlsbad, Calif.). Total RNA was prepared from the homogenate, and purified using PureLink Micro-to-Midi Total RNA Purification System (Invitrogen). SuperScript™ III first-strand synthesis system (Invitrogen) was used to prepare cDNA from the purified total RNA, and quantitative real-time PCR was conducted with ABI Prism® 7000 (Applied Biosystems, Foster City, Calif.). For primers and probes for PCR, TaqMan® gene expression assays (Applied Biosystems) were used.

The subject of the next assay is PD-L1. Put plainly: mRNA expression level of PD-L1 in the kidneys of SCG/Kj mice (quantitative real-time PCR). Conditions: 5% EPA-E diet from seven weeks old until completed 11th week of age. Here is the method: as §1, §2
Background: Quantitative PCR measures a nucleic acid by following its amplification.

In a further assay the test system is CTLA4. Kind of assay: mRNA expression level of CTLA4 in the kidneys of SCG/Kj mice (quantitative real-time PCR). Conditions: 5% EPA-E diet from seven weeks old until completed 11th week of age. Here is the method: as §1, §2
For a further assay, the system named is SCG/Kj mice. Put plainly: Action of EPA on the survival rate of SCG/Kj mice as an ANCA model. The settings on record: SCG/Kj mice fed 5% diet in a free-feeding state from seven weeks old. An excerpt:
SCG/Kj mice (seven weeks old) as a spontaneous ANCA vasculitis/nephritis model (Nippon Kayaku Co., Ltd.) were divided into three groups comprising 6 or 7 animals each, and fed on (1) fish meal-free feed F1 (Funakoshi Co., Ltd.) (control group), (2) 5% corn oil diet (manufactured by Sigma Corporation) (corn oil group), or (3) 5% EPA-E diet (diet F1 with 5% EPA-E added thereto) (EPA group) in a free-feeding state so as to observe the survival rate.

The subject of a further assay is Foxp3. Put plainly: mRNA expression level of Foxp3 in the kidneys of SCG/Kj mice (quantitative real-time PCR). The settings on record: 5% EPA-E diet from seven weeks old until completed 11th week of age. Here is the method:
as §1, §2

The test system of the next assay is PD-1. Put plainly: mRNA expression level of PD-1 in the kidneys of SCG/Kj mice (quantitative real-time PCR). The settings on record: 5% EPA-E diet from seven weeks old until completed 11th week of age. Here is the method:
as §1, §2

We go through 1 molecule from patent US20110152223A1, “THERAPEUTIC AGENT FOR ANCA-RELATED VASCULITIS” (priority 2008, published 2011).

In the case of `CC/C=C\C/C=C\C/C=C\C/C=C\C/C=C\CCCC(=O)OCC` [EPA-E, ethyl icosapentate ester], in the assay with MPO-ANCA, the “ANCA levels relative to normal mice (B6)” value is listed as “comparable to those of the normal mice (B6)”; the “ANCA production as compared with the control group and the corn oil group” value is “evidently suppressed”. Further, in the assay with PD-L2, the “PD-L2 mRNA expression level in the kidney as compared with the control group” value is on record as “likely to be increased”. The “PD-L1 mRNA expression level in the kidney as compared with the control group” value in the assay with PD-L1 was “likely to be increased”. Moreover, in the assay on CTLA4, the “CTLA4 mRNA expression level in the kidney as compared with the control group” value is given as “likely to be increased”. For the same molecule, in the assay on SCG/Kj mice, the “age at which the survival rate began to decrease” value was “about 15 weeks old” and the survival-prolonging effect result was “has a survival-prolonging effect”. Moreover, in the assay with Foxp3, the “Foxp3 mRNA expression level in the kidney as compared with the control group” value was “significantly increased”. Besides, the “PD-1 mRNA expression level in the kidney as compared with the control group” value in the assay with PD-1 is given as “likely to be increased”.
